# Source: US10287337B2 (priority 2015, dated 2019)
# Several values for one entry are separate records, joined by “and”; a condition that tells them apart may be missing. Equal values may be shown once. No end group written: not given here.
# What was measured:
# [1] = system: electrocutaneous stimulation-induced facial pain in rats; assay: Electrocutaneous stimulation-induced facial inflammatory pain model; type: in vivo, rat; conditions: rat, in vivo
# Method: In humans electrocutaneous stimulation elicited vasodilatation in the cheek (Vassend and Knardahl, 2005). […] Baseline facial thermal thresholds of rats (Sprague-Dawley, male, 260-300 g) were assessed on the rats' depilated left cheek and then each rat received 1 hour of electrocutaneous facial stimulation using WPI ISOSTIM™ A320 (World Precision Instruments, 0.4 mA intensity, 10 ms duration, Is inter-pulse interval). 24 hr after stimulation (Day 1), each rat's thermal pain threshold mediated by A-delta fiber and C fiber were separately measured using a thermal nociception lamp (variable voltage regulator model: No. SC-3M) to evoke A-delta and C nerve fiber-mediated cheek withdrawal. […] Thermal thresholds were measured once every 0.5 hour for the first 3 hours post-I.N. dosing, and then 4, 5, and 6 hour post-I.N. dosing. Voltage regulator set to 90V for A-delta fiber testing and 45V for C fiber testing. Cutoff set at 6 seconds and 20 seconds for A-delta fiber and C fiber testing, respectively.
# [2] = system: normal physiological pain sensation in normal rats; assay: Normal rats cheek withdrawal latency to noxious heat; conditions: rat, in vivo
# Method: Ideal therapeutics of anti-inflammatory pain or anti-hypersensitivity (occurred in neuropathic pain) should not interfere with normal physiological pain sensations. […] After removing the patches, cheek withdrawal latencies (mean±SEM) were assessed using continuous and noxious heat at different time points within the initial 3 hours test period.
# [3] = system: paw incision-induced postoperative pain in rats; assay: Paw incision-induced postoperative pain model, mechanical pain threshold; type: in vivo, rat; conditions: rat, in vivo
# Source text: A clinically applicable incision model in rodents is a hind-paw deep incision that produces a robust mechanical and cold allodynia, and thermal hyperalgesia (Pogatzki et al., 2003; Xu and Brennan, 2010). Male rats (Sprague-Dawley, 250-260 g, Harlan) used (n=8/group) were anesthetized with 2.5% isoflurane and the skin of the dorsolateral hindpaw surface were prepped by first depilitating it (using Nair), followed by rinsing and application of povidone-iodine. Afterwards, a 5 mm longitudinal incision was made near the hairy/glabrous border though the skin and subcutaneous fascia of the left hindpaw as described by (Pogatzki et al., 2003; Xu and Brennan, 2010). After briefly elevating the underlying muscle with curved forceps the wound is closed with a single nylon (8-0) mattress stitch.
# Pre-surgery (baseline) and 24 hours after the surgery, the mechanical allodynia of the incision hindpaws of the rats were assessed using von Frey monofilaments with an up/down procedure (Chaplan et al., 1994). […] Mechanical pain thresholds were measured at 0.5, 1, 2, 3, 4, 5 and 6 hours post-intradermal injection.
# [4] = system: spared nerve injury-induced neuropathic pain in rats; assay: Spared nerve injury (SNI)-induced neuropathic pain model, thermal and mechanical pain thresholds; type: in vivo, rat; conditions: rat, in vivo
# Method: Of the three branches of the sciatic nerve the tibial and common peroneal nerves were cut and ligated leaving the sural nerve intact. Pre-surgery baselines (BL, 100%) of the thermal and mechanical pain thresholds of the ipsilateral hindpaws were measured using the Hargreaves thermal stimulator (6.0 A with a surface temperature of 30° C.; Hargreaves et al., 1988) and von Frey hair monofilaments (up-down method, Chaplan et al., 1994). […] All drug testing was conducted with this post-SNI period.
# The rat recovered from anesthesia within a few minutes and the thermal and mechanical pain thresholds were determined at 0.5, 1, 2, 3, 4, 5 and 6 hour after the treatment using the methods described above.
# Using the same test protocol in a different cohort of SNI rats, novel AFA-peptide 3 (0.1, 1 and 3 μM, each 50 μL) or the vehicle (50 μL) was injected into the ipsilateral hindpaws under a brief and light anesthesia condition (with 2.5% isoflurane). The thermal and mechanical pain thresholds were determined at 0.5, 1, 2, 3, 4, 5 and 6 hour after the treatment. […]
# [5] = system: UVB radiation-induced inflammatory pain in rat cheek; type: in vivo; conditions: rat, in vivo
# [6] = system: UVB radiation-induced inflammatory pain in rat cheek; type: in vivo; conditions: rat, in vivo; remark: listed apart in the source
# Source text: Ultraviolet B (UVB) radiation causes cutaneous inflammation in humans and animals. One important clinical consequence of UVB-induced inflammation is causing hyperalgesia. Changes in thermal sensitivities in the area of primary UVB irradiation are well documented both in humans and in the animal models (Zhang et al., 2009). […] This model provides an experimental model of post radiation pain and can mimic one type of burn pain. To determine the magnitude of anti-inflammatory pain effects for a given drug transdermally delivered by way of microneedle delivery, the depilated rat's cheeks were exposed to an inflammatory dosage of Ultraviolet B radiation (Zhang et al., 2009).
# With the skin of a rat's cheek was stretched, the circular (8 mm in diameter) fiberglass applicator of the UV Curing Device (Dymax Bluewave 200) was applied to the center of the rat's cheek. To produce an appropriate inflammation, a total dose of 1200 mJ/cm^2 UVB was administered to one rat cheek for 25 seconds. The same procedure was performed on the rat's contralateral cheek. Upon completion of UVB irradiation, all rats were returned to their home cages and were assessed for thermal pain between 24-48 hours later. […] The rats were lightly anesthetized with urethane (800 mg/kg, IP) and heat-induced withdrawal latencies of the cheeks (an indicator of C fiber stimulation responses) were measured. […] A sham control group (n=6) were only completely depilated and cleansed with ethanol wipes but without UVB challenge.
# After removing patches, cheek withdrawal latencies induced by continuous and noxious heat were assessed at different time points from the end of the 20 minute treatment period up to 3 hours post treatment.
# The patches were applied on the rat cheek for 20 minutes. After removing the patches, cheek withdrawal latencies induced by continuous and noxious heat were assessed at different time points up to 3 hours as described above.
# (§1) After removing the patches, cheek withdrawal latencies induced by continuous and noxious heat were assessed at different time points up to 3 hours.
# Accordingly, anti-inflammatory effects were examined 48 hours post-UVB and after the application of the patch. Twelve rats were subjected to UVB radiation (1200 mJ/cm^2). […] The patch was placed over the inflamed area for a period of 20 minutes. […] Sham control group rats (n=6) were completely depilated and cleansed with ethanol wipes but without any other treatment. The rats were returned to their home cages, and assessed for thermal pain responses 48 hours later. As usual, cheek withdrawal latencies in response to continuous and noxious heat were recorded over a 3-hour time period (hours 49-51 post-UVB).
# as §1
# After removing the patches, cheek withdrawal latencies induced by continuous and noxious heat were assessed at different time points from 20 minutes post administration up to 3 hours.
# Because UVB-irradiation may increase skin permeability, a topical formulation, but not limited to the sample shown here, was made.
# [7] = system: STZ-induced diabetic pain in rats; assay: Streptozotocin (STZ)-induced diabetic neuropathic pain model; conditions: rat, in vivo
# Method: Painful peripheral neuropathy is a common secondary complication of diabetes mellitus. Streptozotocin (STZ)-induced diabetic polyneuropathy causes more broad pain and has neurogenic inflammation component in rodents (Bishnoi et al., 2011). Prior to STZ administration, each rat's baseline of thermal and mechanical thresholds on their individual hindpaws were assessed using the Hargreaves thermal pain test, and von Frey mechanical pain test, respectively.
# After removing the patches, hindpaw withdrawal latencies induced by continuous and noxious heat (Hargreaves) were assessed at 1 hour post-microneedle application.
# [8] = target: T1, human calcitonin CGRP1 (CGRP1) membrane (Homo sapiens, UniProt O60894+Q16602); type: binding; conditions: for Hill slope: 0.24 nM [125I]-CGRP, Mean±SD; for binding affinity on CGRP receptors (in words): comparison between peptides
# T1 construct: purchased Perkin Elmer (Waltham, Mass.)
# T1 sequence (O60894 27-148): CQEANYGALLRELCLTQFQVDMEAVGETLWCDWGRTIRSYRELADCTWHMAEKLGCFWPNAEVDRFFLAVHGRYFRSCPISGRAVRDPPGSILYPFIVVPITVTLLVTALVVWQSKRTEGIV
# T1 sequence (Q16602 23-461): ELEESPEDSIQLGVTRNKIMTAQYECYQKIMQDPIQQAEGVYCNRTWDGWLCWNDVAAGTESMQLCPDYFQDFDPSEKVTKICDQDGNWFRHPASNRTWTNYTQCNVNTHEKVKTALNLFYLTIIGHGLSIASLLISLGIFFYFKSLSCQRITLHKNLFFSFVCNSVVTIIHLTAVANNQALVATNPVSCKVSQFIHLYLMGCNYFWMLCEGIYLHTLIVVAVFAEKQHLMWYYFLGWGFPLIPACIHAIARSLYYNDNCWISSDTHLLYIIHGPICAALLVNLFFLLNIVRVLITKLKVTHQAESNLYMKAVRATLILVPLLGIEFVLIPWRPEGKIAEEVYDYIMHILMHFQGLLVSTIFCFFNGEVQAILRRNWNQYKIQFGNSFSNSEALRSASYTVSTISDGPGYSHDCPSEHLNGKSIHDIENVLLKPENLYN
# Method: CGRP1 membrane was homogenized in the assay buffer (50 mM Tris-HCl pH 7.4, 5 mM MgCl2, 0.5% BSA, 0.05% Tween20). […] After 1 h of incubation, at room temperature, samples were filtered, using a Tomtec cell harvester, through glass fiber filters that had been presoaked in 0.05% polyethyleneimine and washed with the cold Tris buffer (50 mM Tris-HCl pH7.4). Filters were counted on a betaplate reader (Wallac).
molecule,measurement,setting,value
CSCC[C@H](NC(=O)CNC(=O)CNC(=O)[C@H](CO)NC(=O)[C@H](CCCNC(=N)N)NC(=O)[C@H](CO)NC(=O)[C@H](CC(C)C)NC(=O)[C@H](CC(C)C)NC(=O)CNC(=O)[C@H](C)NC(=O)[C@H](CC(C)C)NC(=O)[C@H](CCCNC(=N)N)NC(=O)[C@H](Cc1c[nH]cn1)NC(=O)[C@@H](NC(=O)[C@@H](N)C(C)C)[C@@H](C)O)C(=O)N[C@H](C(=O)N[C@@H](CCCCN)C(=O)N[C@@H](CO)C(=O)N[C@@H](CC(N)=O)C(=O)N[C@@H](Cc1ccccc1)C(=O)N[C@H](C(=O)N1CCC[C@H]1C(=O)N[C@H](C(=O)N[C@@H](CC(N)=O)C(=O)N[C@H](C(=O)NCC(=O)N[C@@H](CO)C(=O)N[C@@H](CCCCN)C(=O)N[C@@H](C)C(=O)N[C@@H](Cc1ccccc1)C(N)=O)C(C)C)[C@@H](C)O)C(C)C)C(C)C [CGRP 8-37],A-delta fiber-mediated pain withdrawal latencies vs vehicle (in words),[1],insignificant analgesic effects
same,C-fiber-mediated pain withdrawal latencies vs vehicle (in words),[1],even more substantial and significantly prolonged
same,"thermal pain thresholds in naïve, non-facial stimulation rats (in words)",[1],did not alter thermal pain thresholds
same,"Normal Rats Average Pain Response Latency, Mean",[2],10.3 s and 11.0 s and 11.2 s and 10.6 s and 10.5 s and 9.6 s and 10.1 s and 10.2 s
same,analgesic effect on normal nociceptive pain (in words),[2],did not produce any measurable analgesic effect
same,mechanical pain thresholds vs vehicle (in words),[3],significantly increased mechanical pain thresholds
same,onset of analgesic effect post treatment,[3],1 h
same,duration of anti-allodynic effect,[4],up to 6 hours
same,duration of thermal antihyperalgesic effect,[4],up to 5 hours
same,effect on thermal threshold (in words),[4],full reversal to baseline thermal threshold values
same,return toward baseline mechanical sensitivity,[4],~25%
same,thermal and mechanical pain thresholds (in words),[4],reduced SNI-induced neuropathic pain
same,time of full reversal / peak antihyperalgesic effect after application,[4],around 1 hour
same,time of maximal anti-allodynic effect post-microneedle application,[4],3 h
same,A-delta-fiber-mediated responses (in words),[5],little effects
same,"Average Reduced Latency for Inflammation, Mean",[6],9.9 s and 10.5 s and 11.2 s and 11.0 s and 12.2 s and 8.0 s and 9.1 s
same,C-fiber-mediated thermal pain thresholds vs vehicle (in words),[6],significant and substantial increase
same,duration of action,[6],2 h
same,return to mechanical pain baseline values,[7],35%
same,thermal threshold (in words),[7],full return to their baseline thermal thresholds
"NCC1(CC(=O)O)CCCCC1 [Gabapentin, gabapentin]",duration of thermal antihyperalgesic effect,[4],3 h
same,effect on thermal threshold (in words),[4],significant antihyperalgesic effect
same,time of full reversal / peak antihyperalgesic effect after application,[4],1 h
"CCN(CC)CC(=O)Nc1c(C)cccc1C [Lidocaine, lidocaine]",analgesic effect on normal nociceptive pain (in words),[2],produced analgesic effect on normal nociceptive pain
same,thermal and mechanical pain thresholds (in words),[4],produced positive control
"H-NFAPTNVGPFAF-NH2 [AFA- peptide 10, NH2-N-F-A-P-T-N-V-G-P-F-A-F-CONH2]",Hill slope,[8],1.07 ± 0.01
same,binding affinity on CGRP receptors (in words),[8],higher affinities than conventional CGRP 27-37 and CGRP 8-37
"H-NFFPTNVGPFAF-NH2 [AFA- peptide 9, NH2-N-F-F-P-T-N-V-G-P-F-A-F-CONH2]",Hill slope,[8],1.07 ± 0.05
same,binding affinity on CGRP receptors (in words),[8],higher affinities than conventional CGRP 27-37 and CGRP 8-37
"H-NFIPTNVGPFAF-NH2 [AFA- peptide 6, NH2-N-F-I-P-T-N-V-G-P-F-A-F-CONH2]",Hill slope,[8],1.13 ± 0.13
"H-NFLPTNVGPFAF-NH2 [AFA- peptide 7, NH2-N-F-L-P-T-N-V-G-P-F-A-F-CONH2]",Hill slope,[8],1.03 ± 0.15
same,binding affinity on CGRP receptors (in words),[8],higher affinities than conventional CGRP 27-37 and CGRP 8-37
"H-NLVPTNVGPFAF-NH2 [AFA- peptide 8, NH2-N-L-V-P-T-N-V-G-P-F-A-F-CONH2]",Hill slope,[8],0.88 ± 0.18
YVPTAVGPFAF-NH2 [CGRP 27-37],Hill slope,[8],1.62 ± 0.25
